How the values were obtained:
[1] = Displacement of Torpedo californica electroplax muscle type (alpha1)2beta1gammadelta nicotine acetylcholine receptor (unknown origin) after 90 mins by radioligand displacement assay; parameters: species or system Tetronarce californica
[2] = molecular target: T1, Neuronal acetylcholine receptor subunit alpha-7 (Rattus norvegicus, UniProt Q05941); assay: Displacement of [3H]-MLA from Sprague-Dawley rat brain alpha7 nicotine acetylcholine receptor after 90 mins by radioligand displacement assay
[3] = molecular target: T2, Neuronal acetylcholine receptor; alpha4/beta2 (Rattus norvegicus, UniProt P09483+P12390); assay: Displacement of [3H]-epibatidine from Sprague-Dawley rat brain alpha4beta2 nicotine acetylcholine receptor after 90 mins by radioligand displacement assay
[4] = molecular target: T2, Neuronal acetylcholine receptor; alpha4/beta2; assay: Displacement of [3H]-nicotine from alpha4beta2 nicotine acetylcholine receptor in rat brain membranes after 90 mins by liquid scintillation spectrometric analysis; type: cell membranes, Membrane
[5] = system: Mus musculus; assay: Antinociceptive activity in sc dosed ICR mouse administered 5 mins prior to testing by tail-flick method; type: functional
[6] = molecular target: T1, Neuronal acetylcholine receptor subunit alpha-7; assay: Displacement of [3H]-MLA from alpha7 nicotine acetylcholine receptor in rat brain minus cerebellum after 60 mins by scintillation counting analysis; type: tissue-based
[7] = system: Mus musculus; assay: Antinociceptive activity in ip dosed mouse administered 30 mins prior to testing by hot plate test; type: functional

T2 sequence (P09483 whole entry): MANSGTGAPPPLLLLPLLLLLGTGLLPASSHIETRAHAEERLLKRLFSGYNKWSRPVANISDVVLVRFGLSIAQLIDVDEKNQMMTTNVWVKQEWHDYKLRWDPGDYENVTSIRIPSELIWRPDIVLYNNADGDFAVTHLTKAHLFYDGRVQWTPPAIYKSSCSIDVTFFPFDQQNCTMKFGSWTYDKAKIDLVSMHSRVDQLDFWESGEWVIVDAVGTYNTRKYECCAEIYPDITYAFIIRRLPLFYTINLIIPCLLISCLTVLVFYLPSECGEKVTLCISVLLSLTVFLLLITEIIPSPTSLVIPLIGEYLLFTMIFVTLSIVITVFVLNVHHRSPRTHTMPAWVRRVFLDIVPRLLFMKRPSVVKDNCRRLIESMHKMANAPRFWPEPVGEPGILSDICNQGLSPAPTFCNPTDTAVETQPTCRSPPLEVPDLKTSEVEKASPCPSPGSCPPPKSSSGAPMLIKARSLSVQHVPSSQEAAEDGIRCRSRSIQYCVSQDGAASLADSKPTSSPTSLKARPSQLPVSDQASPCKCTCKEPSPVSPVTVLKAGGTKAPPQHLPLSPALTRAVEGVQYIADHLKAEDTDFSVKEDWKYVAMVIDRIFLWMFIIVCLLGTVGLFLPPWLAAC
T2 sequence (P12390 whole entry): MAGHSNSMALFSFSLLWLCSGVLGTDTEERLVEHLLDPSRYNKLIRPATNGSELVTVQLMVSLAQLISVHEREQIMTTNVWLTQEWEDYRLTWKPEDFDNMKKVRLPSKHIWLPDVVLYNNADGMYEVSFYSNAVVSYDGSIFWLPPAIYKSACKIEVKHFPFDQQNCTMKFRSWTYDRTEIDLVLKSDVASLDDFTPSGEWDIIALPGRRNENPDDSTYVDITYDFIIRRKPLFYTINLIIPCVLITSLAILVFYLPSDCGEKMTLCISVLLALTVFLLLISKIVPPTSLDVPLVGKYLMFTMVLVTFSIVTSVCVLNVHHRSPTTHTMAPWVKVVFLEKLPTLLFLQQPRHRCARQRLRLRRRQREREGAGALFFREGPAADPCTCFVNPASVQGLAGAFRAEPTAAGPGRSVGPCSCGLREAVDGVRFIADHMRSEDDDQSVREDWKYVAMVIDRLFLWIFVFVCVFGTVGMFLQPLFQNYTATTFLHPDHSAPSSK
T1 sequence (Q05941 whole entry): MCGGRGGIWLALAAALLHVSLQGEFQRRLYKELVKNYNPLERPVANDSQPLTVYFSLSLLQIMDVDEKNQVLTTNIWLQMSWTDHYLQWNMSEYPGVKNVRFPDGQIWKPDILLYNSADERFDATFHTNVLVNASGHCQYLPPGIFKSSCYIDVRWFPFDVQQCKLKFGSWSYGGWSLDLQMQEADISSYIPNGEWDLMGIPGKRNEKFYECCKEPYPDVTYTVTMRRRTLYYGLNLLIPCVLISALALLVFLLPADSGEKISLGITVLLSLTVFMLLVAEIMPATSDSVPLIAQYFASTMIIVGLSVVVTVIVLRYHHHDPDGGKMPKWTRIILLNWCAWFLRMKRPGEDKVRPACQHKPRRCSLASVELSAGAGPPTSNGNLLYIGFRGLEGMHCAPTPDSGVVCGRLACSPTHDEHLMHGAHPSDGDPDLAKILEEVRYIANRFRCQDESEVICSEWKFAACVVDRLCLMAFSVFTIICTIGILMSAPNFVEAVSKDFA

SMILES	Ki [2] [nM]	Ki [3] [nM]	other results
CN(C)CCOc1cc(F)cc(N2CC3CNCC(C3)C2)c1	> 1000	186	Ki [1]: > 1000 nM
CN(C)CCOc1cncc(N2CCNCC2)c1	> 1000	145	Ki [1]: > 1000 nM
CN(C)CCOc1cc(N2CCCNCC2)cc(F)c1F	–	> 1000	–
CN(C)CCOc1cncc(N2CCC2)c1	> 1000	784	–
CN(C)CCOc1cncc(N2CCCCC2)c1	> 1000	> 1000	–
CN(C)CCOc1cc(F)cc(N2CCNCC2)c1	–	> 1000	–
CN(C)CCOc1cc(N2CCN(C)CC2)cc(F)c1F	–	> 1000	–
CN(C)CCOc1cc(N2CCNCC2)cc(F)c1F	–	> 1000	–
CN(C)CCOc1cc(F)cc(N2CCN(C)CC2)c1	–	> 1000	–
CN(C)CCOc1cncc(N2CCC(O)CC2)c1	> 1000	613	–
CN1CCCC1c1cncc(C2CCCN2C)c1 (stereo not given)	–	–	Ki [4]: 1180 nM
CN(C)CCOc1cncc(-c2cncc(OCCN(C)C)c2)c1	> 1000	290	Ki [1]: 905 nM
CN(C)CCOc1cccnc1	–	–	ED50 [5]: 15 mg/kg
CN(C)CCOc1cncc(N2CCCNCC2)c1	> 1000	6.9	Ki [1]: > 1000 nM
CN(C)CCOc1cncc(N2CCCN(C)CC2)c1	–	212	–
CN(C)CCOc1cncc(N2CCOCC2)c1	–	> 1000	–
CN(C)CCOc1cncc(N2CCN(C)CC2)c1	> 1000	66.8	Ki [1]: > 1000 nM
CN(C)CCOc1cc(N2CCCN(C)CC2)cc(F)c1F	–	> 1000	–
CCN(CC)CCOc1ccc2c(c1)C(=O)c1cc(OCCN(CC)CC)ccc1-2 [TILORONE]	–	–	Ki [6]: 110 nM
c1cncc(N2CC3CNCC(C3)C2)c1	–	–	MED [7]: 1.9 µmol/kg
CN(C)CCOc1cc(F)cc(N2CCCN(C)CC2)c1	–	> 1000	–
CN(C)CCOc1cc(F)cc(N2CCCNCC2)c1	–	> 1000	–
CN(C)CCOc1cncc(N2CCCC2)c1	> 1000	> 1000	–
CN(C)CCOc1cncc(N2CC3CNCC(C3)C2)c1	> 1000	0.188	Ki [1]: > 1000 nM

— ChEMBL document CHEMBL3593203, “The twin drug approach for novel nicotinic acetylcholine receptor ligands” (Bioorg Med Chem, 2015)
